Laboratory results reported in PMC7904915, “Discovery of exolytic heparinases and their catalytic mechanism and potential application” (Nature Communications, 2021).

Key:
Type in all cases: biochemical
BIexoHep = target: T1, BIexoHep (Bacteroides intestinalis, UniProt B3C5J6); assay: tetrasaccharide digestion, 2-AB labelling, anion-exchange HPLC; conditions: exolytic beta-elimination; 5 pmol substrate
T1 construct: gene BACINT_00178; pET-30a(+), His-purified from E. coli BL21(DE3); crystal residues 24-864, monomer, two Ca2+
T1 sequence (B3C5J6 24-868): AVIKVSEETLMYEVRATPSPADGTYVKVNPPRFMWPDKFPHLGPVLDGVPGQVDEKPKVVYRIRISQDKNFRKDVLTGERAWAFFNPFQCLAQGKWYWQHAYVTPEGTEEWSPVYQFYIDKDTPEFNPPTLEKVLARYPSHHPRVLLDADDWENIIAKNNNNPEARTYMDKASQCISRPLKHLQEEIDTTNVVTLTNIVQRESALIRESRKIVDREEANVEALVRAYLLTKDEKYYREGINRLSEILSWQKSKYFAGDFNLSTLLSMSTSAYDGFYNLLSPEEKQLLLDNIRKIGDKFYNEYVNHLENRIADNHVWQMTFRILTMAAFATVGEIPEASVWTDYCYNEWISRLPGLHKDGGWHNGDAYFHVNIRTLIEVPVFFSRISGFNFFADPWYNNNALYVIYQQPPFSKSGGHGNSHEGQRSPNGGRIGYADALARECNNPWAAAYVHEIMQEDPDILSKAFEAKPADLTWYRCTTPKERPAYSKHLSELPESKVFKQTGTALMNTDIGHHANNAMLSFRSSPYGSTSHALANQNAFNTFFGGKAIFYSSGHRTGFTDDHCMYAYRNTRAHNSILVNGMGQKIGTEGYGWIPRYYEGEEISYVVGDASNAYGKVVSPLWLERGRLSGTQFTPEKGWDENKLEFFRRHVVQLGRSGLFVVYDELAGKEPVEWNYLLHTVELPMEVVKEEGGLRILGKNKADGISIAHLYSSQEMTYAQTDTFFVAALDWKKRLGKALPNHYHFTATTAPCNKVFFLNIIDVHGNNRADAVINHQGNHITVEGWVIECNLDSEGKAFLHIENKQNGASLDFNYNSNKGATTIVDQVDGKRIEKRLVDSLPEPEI

BFexoHep = target: T2, BFexoHep (Bacteroides finegoldii, UniProt C9L025); assay: digestion, anion-exchange HPLC at […] nm; conditions: […] μg fondaparinux; cleaved to ΔUA2S([…]-4)GlcNS6S(OCH3) only
T2 construct: synthetic gene, expressed in E. coli BL21(DE3) and purified as BIexoHep
T2 sequence (C9L025 24-874): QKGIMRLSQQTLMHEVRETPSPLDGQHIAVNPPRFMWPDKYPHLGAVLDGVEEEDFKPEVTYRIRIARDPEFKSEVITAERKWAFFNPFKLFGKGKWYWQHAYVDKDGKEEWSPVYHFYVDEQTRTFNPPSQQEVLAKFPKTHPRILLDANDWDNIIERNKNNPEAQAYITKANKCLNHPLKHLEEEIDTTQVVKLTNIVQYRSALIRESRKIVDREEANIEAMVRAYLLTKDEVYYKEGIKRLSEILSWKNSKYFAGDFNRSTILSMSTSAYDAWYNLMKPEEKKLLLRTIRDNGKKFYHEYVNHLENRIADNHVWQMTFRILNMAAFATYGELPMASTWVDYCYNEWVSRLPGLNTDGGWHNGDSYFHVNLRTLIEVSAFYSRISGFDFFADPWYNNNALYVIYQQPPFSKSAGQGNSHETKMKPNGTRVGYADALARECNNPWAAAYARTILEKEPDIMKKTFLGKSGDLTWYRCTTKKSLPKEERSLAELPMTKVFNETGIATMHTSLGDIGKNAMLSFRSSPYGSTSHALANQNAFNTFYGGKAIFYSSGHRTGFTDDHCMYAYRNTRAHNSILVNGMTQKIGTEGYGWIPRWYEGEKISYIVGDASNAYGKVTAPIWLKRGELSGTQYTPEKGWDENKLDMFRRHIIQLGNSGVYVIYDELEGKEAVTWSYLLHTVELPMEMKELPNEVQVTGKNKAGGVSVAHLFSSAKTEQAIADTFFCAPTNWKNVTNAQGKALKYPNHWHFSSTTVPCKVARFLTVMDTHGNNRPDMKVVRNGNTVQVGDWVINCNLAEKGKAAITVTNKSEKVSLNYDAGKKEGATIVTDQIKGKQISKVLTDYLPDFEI

BCexoHep = target: T3, BCexoHep (Bacteroides cellulosilyticus, UniProt A0A0P0GDH6); assay: digestion, anion-exchange HPLC at […] nm; conditions: 5 μg fondaparinux; cleaved to ΔUA2S(1-4)GlcNS6S(OCH3) only
T3 construct: gene hepB; synthetic gene, expressed in E. coli BL21(DE3) and purified as BIexoHep
T3 sequence (A0A0P0GDH6 18-868): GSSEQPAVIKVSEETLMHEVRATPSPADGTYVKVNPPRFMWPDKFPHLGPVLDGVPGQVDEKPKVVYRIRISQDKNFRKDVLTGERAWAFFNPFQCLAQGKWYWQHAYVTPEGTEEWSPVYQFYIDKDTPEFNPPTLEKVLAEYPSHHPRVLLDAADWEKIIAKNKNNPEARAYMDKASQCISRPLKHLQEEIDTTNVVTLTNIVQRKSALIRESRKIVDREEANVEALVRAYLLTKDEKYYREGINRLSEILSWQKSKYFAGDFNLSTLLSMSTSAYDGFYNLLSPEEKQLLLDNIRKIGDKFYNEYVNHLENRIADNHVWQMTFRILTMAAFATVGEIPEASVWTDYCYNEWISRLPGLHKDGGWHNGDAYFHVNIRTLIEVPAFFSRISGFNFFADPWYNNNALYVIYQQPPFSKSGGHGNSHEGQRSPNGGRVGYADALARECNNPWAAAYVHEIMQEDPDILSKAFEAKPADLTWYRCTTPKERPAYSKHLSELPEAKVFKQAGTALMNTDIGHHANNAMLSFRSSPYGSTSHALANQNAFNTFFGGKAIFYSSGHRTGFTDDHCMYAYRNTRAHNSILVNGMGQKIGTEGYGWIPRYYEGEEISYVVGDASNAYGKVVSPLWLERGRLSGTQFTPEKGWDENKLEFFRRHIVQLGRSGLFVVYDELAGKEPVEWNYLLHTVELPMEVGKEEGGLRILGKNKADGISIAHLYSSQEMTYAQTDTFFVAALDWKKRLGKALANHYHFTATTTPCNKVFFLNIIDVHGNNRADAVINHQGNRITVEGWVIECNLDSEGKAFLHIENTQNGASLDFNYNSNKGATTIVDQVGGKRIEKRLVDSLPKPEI

BTexoHep = target: T4, BTexoHep (Bacteroides thetaiotaomicron, UniProt Q89YS9); assay: digestion, anion-exchange HPLC at […] nm; conditions: 5 μg fondaparinux; cleaved to ΔUA2S(1-4)GlcNS6S(OCH3) only
T4 construct: gene BT_4652; synthetic gene, expressed in E. coli BL21(DE3) and purified as BIexoHep
T4 sequence (Q89YS9 22-872): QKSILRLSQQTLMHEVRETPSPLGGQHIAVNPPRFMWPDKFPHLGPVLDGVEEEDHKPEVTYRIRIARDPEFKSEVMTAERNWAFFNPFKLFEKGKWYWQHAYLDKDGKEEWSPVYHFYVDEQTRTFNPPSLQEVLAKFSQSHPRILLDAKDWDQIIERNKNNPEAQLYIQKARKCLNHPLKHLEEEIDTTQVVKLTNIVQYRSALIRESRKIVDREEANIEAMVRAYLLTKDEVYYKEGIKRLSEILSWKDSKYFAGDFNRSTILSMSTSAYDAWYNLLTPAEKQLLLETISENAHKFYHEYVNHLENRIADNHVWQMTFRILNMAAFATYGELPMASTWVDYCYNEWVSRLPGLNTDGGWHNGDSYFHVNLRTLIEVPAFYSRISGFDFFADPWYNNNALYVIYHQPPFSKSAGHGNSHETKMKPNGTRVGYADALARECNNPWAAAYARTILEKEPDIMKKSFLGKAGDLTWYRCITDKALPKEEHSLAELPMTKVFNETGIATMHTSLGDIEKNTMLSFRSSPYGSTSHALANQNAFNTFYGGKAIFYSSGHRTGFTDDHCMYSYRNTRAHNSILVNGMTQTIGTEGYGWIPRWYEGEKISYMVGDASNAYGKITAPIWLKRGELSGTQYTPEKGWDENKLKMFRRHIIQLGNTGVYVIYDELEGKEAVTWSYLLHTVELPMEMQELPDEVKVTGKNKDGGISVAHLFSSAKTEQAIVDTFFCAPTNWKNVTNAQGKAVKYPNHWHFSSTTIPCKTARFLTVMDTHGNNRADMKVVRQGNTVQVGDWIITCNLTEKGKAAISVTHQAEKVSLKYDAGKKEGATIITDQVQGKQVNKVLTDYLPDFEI

Structure (SMILES) | tetrasaccharide digestion, 2-AB labelling, anion-exchange HPLC (BIexoHep) | digestion, anion-exchange HPLC at 232 nm (BFexoHep) | digestion, anion-exchange HPLC at 232 nm (BCexoHep) | digestion, anion-exchange HPLC at 232 nm (BTexoHep)
O=C(O)C1=C[C@H](O)[C@@H](OS(=O)(=O)O)[C@H](O[C@H]2[C@H](O)[C@@H](NS(=O)(=O)O)[C@@H](O[C@H]3[C@H](O)[C@@H](O)[C@H](O[C@H]4[C@H](O)[C@@H](NS(=O)(=O)O)C(O)O[C@@H]4COS(=O)(=O)O)O[C@@H]3C(=O)O)O[C@@H]2COS(=O)(=O)O)O1 (some centres unmarked) [P4-7, ΔUA2S1-4GlcNS6S1-4GlcA1-4GlcNS6S] | all could be almost completely degraded |  |  | 
O=C(O)C1=C[C@H](O)[C@@H](OS(=O)(=O)O)[C@H](O[C@H]2[C@H](O)[C@@H](NS(=O)(=O)O)[C@@H](O[C@H]3[C@H](O)[C@@H](OS(=O)(=O)O)[C@H](O[C@H]4[C@H](O)[C@@H](NS(=O)(=O)O)C(O)O[C@@H]4COS(=O)(=O)O)O[C@H]3C(=O)O)O[C@@H]2COS(=O)(=O)O)O1 (some centres unmarked) [P4-8, ΔUA2S1-4GlcNS6S1-4IdoA2S1-4GlcNS6S] | this enzyme prefers to digest highly sulfated substrates |  |  | 
CO[C@H]1O[C@H](COS(=O)(=O)O)[C@@H](O[C@@H]2O[C@@H](C(=O)O)[C@@H](O[C@H]3O[C@H](COS(=O)(=O)O)[C@@H](O[C@@H]4O[C@H](C(=O)O)[C@@H](O[C@H]5O[C@H](COS(=O)(=O)O)[C@@H](O)[C@H](O)[C@H]5NS(=O)(=O)O)[C@H](O)[C@H]4O)[C@H](OS(=O)(=O)O)[C@H]3NS(=O)(=O)O)[C@H](O)[C@H]2OS(=O)(=O)O)[C@H](O)[C@H]1NS(=O)(=O)O [fondaparinux] |  | all these exoHepases can degrade the fondaparinux | all these exoHepases can degrade the fondaparinux | all these exoHepases can degrade the fondaparinux
